From US20060041144A1 (priority 2002, published 2006)

Experiments:
[1] = tested on: Phytophthora infestans; format: in vivo; conditions: tomato (variety: Ponterosa), flowable diluted to 200 ppm, foliar spray before inoculation, observed after 1 day at 23° C. plus 4 days in green house; Test Example 2
[2] = tested on: Plasmopara viticola; assay: Preventive foliar spray test on grape inoculated with Plasmopara viticola zoosporangia (Test Examples 3 and 4); format: in vivo; conditions: grape (variety: Berry A), flowable diluted to 200 ppm, foliar spray before inoculation, observed after 1 day at 23° C. plus 6 days in green house; Test Example 4
Protocol: Additionally, the control effect was evaluated by visually observing the area of a lesion on a sample plant in investigation and comparing the area of a lesion on a non-treatment plant and the area of a lesion on a treated plant with the compound of the present invention.
Sand loam was compacted in a plastic pot, and a grape (variety: Berry A) was seeded and grown in a green house for 40 days. The compounds of the present invention (I-1), (I-2), (I-6) to (I-12), (II-1), (III-1) and (IV-1) were formulated to flowable according to Formulation Example 6, then, diluted with water to provide given concentration of 200 ppm, and these diluted solutions were sprayed onto stems and leaves so as to give sufficient adhesion on the surface of grape leaves. After spraying, the liquid on the stem was air-dried, and a suspension of zoosporangiua of Plasmopara viticola (about 10,000 zoosporangiua were contained in 1 ml of the suspension) was inoculated by spraying. The amount of the sprayed suspension was about 2 ml for one plant. After inoculation, the plant was first grown for one day at 23° C. under 90% or more humidity, then further grown for 6 days in the green house, which was 24° C. in daytime and 20° C. in night-time.
Then, the areas of a lesion of the plants were obserbed. […]

Work on `C#CCOC(C(=O)Nc1cccnc1-c1ccc(OC)c(OC)c1)c1ccc(Cl)cc1` (stereo not drawn) [I-1, N-(2-(3,4-dimethoxyphenyl)pyridine-3-yl)-2-(2-propynyloxy)-2-(4-chlorophenyl)acetamide] yielded a melting point of 125.2 °C.

With `COc1ccc(-c2ncccc2NC(=O)C(=C(Cl)Cl)c2ccc(Cl)cc2)cc1OC` [I-11, N-(2-(3,4-dimethoxyphenyl)-pyridine-3-yl)-2-(chlorophenyl)-3,3-dichloroacrylamide] the “lesion area on treated plants relative to the lesion area on a non-treatment plant” value [1] was “not more than 10%”.

For `COc1ccc(-c2ncccc2NC(=O)C(O)c2ccc(C)cc2)cc1OC` (stereo not drawn) [I-4, N-{2-(3,4-dimethoxyphenyl)pyridine-3-yl}-2-hydroxy-2-(4-methylphenyl)acetamide], the “lesion area on treated plants relative to the lesion area on a non-treatment plant” value [2] was “not more than 10%”.
